In patent publication EP2241555A1, “New RAC1 inhibitors as potential pharmacological agents for heart failure treatment” (UNIVERSITA' DEGLI STUDI DI MILANO, priority 2009, dated 2010):
Where two headings read alike, the source gives them in different places. Each block holds one molecule with its values, some of them ahead of it.

Assays:
[1] = PAMPA (Parallel Artificial Membrane Permeability Assay); format: in vitro ADME; settings: start concentration 250 µM, diffusion period 16 h
Experimental: (§1) The permeation characteristics of the Rac1 inhibitors were determined first in the artificial system PAMPA (Parallel Artificial Membrane Permeability Assay) which uses a membrane covered with a lipid to simulate the lipid bilayer of various cell types, including intestinal epithelium and second in vitro across Caco2, a human colon carcinoma cell line seeded as monolayers onto polycarbonate membranes. The PAMPA is able to predict the ability of a compound to permeate by a passive transcellular transport through an artificial lipid layer assembled on a membrane and also allows a classification into low (flux <20%), medium (20%≤ flux ≤70%), and high (flux >70%) absorbing substances. The Caco2 assay provides a well-established in vitro model to predict the human intestinal absorption.
The flux rate of the compounds of the invention and the reference NSC23766 was measured from a donor compartment to an acceptor compartment across the lipid layer at a start concentration of 250 µM over a diffusion period of 16 h.

[2] = Caco2 monolayer permeation; format: in vitro ADME, human; settings: human, Caco-2, Caco2 monolayers, start concentration 50 µM
Experimental: as §1

Caco2 = Caco2 monolayer permeation; format: in vitro ADME, human; settings: Caco2 monolayers, 90 min, start concentration 50 µM
Experimental: as §1

HL-1 cells = test: Apoptosis of ischemic HL-1 cardiomyocytes (TUNEL assay, flow cytometer); format: cell-based, mouse; settings: 100 µM; 8 h ischemia (glucose deficient medium + hydrogen peroxide); 8h Ischemia alone 701.6, 8h Control 100
Experimental: To establish a cardiomyocytes based apoptosis assay, which mimics the post-ischemic damage observed after myocardial infarction, we have utilized a cardiac muscle cell line, HL-1 cells, derived from the AT-1 mouse atrial cardiomyocyte tumor lineage. The HL-1 cells were incubated in glucose deficient medium in the presence of hydrogen peroxide and either in presence or absence of compounds of the invention Apoptosis rate of ischemic HL-1 cells was normalised to the apoptosis rate of the 8h control cells under non-ischemic conditions, thus incubated with normal concentration of glucose in the absence of hydrogen peroxide. Both non-ischemic and ischemic HL-1 cultures were harvested after 8 hours. […] The apoptotic rates were then evaluated by TUNEL assay, a method for detecting DNA strand breaks in apoptotic cells by flow cytometer The solvent of the compounds, i.e DMSO, has no influence on the apoptosis rate. […] Effect of newly synthesized compounds with Rac1 inhibitory activity on apoptosis rate in HL-1 cells normalized to control (TUNEL-assay) The data are representative of two experiments.

HepG2 cells = test: Resazurine cytotoxicity assay (metabolic activity), HepG2; format: cell-based, human; settings: for toxic classification / MVC / EC50: HepG2, 24 h; for toxic classification: classification in words in the text; for MVC: maximal viability concentration; for Cytotoxicity-Classification: HepG2, 24 h exposure; for EC50: Homo sapiens
Experimental: (§2) For a pre-screening of the compounds they were first tested in human hepatocellular carcinoma cells (HepG2 cells)for 24 h and to gain further information about the cytotoxic potential more specific target tissues like the mouse cardiomyocytes HL-1 and primary rat cardiomyocytes were used additionally. […] The toxicity classification has been determined by using drugs currently utilized in clinic with known toxicity profile

Rac1 = molecular target: T1, Rac1 (Homo sapiens, UniProt P63000); test: G-LISA assay of intracellular Rac1-GTP in PDGF-BB stimulated human smooth muscle cells; format: cell-based; settings: for remaining activity at 100 µM: Concentration 100 µm; for remaining activity at 100 µM / remaining activity at 50 µM: read-out: Rac1 inhibitory activity (% vs control); for inhibitory action on Rac1 activity: G-LISA, 50 µM, statement in words
T1 construct: endogenous in cells; host or cells: human cultured smooth muscle cells, stimulated with PDGF-BB
Text: The intracellular amount of Rac1-GTP has been determined using the GLISA™ assay (Cytoskeleton, Inc). The GLISA™ assay uses a 96-well plate coated with RBD domain of Rac1-family effector protein PAK1. […] A significant inhibition on Rac1 activity should decrease the intracellular levels of Rac1-GTP and therefore reduce the percentage of Rac1-GTP detected compared to control untreated cells.

[3] = tissue homogenate, 60 min, 10 µM
Experimental: The basic incubation mixture with total volume of 500 µl consisted of the following components. 100 µl liver homogenate, compound in DMSO (dimethyl sulfoxide) and 1 mM NADPH (reduced nicotinamide adenine dinucleotide phosphate), 1 mM UDPGA (uridine 5'-diphosphoglucuronic acid), 1 mM PAPS (3'-phosphoadenosine-5'-phosphosulfate) and 1 mM GSH (glutathione). The substrate concentration used was 10 µM. Two parallel incubations, one with cofactors and one without, were made. Final DMSO concentration in the incubation was 1 µM. […] Reaction was started by addition of a cofactor mixture and stopped by adding 250 µl of ice-cold acetonitrile.

[4] = tested on: primary rat cardiomyocytes; test: Resazurine cytotoxicity assay (metabolic activity), primary rat cardiomyocytes; format: cell-based; settings: for MVC / EC50: 24 h; for MVC: maximal viability concentration; for Cytotoxicity-Classification: 24 h exposure; for EC50: Cardiomyocyte, metabolic activity
Experimental: as §2

HL-1 = test: Resazurine cytotoxicity assay (metabolic activity), HL-1; format: cell-based, mouse; settings: for MVC / EC50: HL-1, 24 h; for MVC: maximal viability concentration; for Cytotoxicity-Classification: HL-1, 24 h exposure; for EC50: Mus musculus, metabolic activity
Experimental: as §2

[5] = 4 hours incubation, then PDGF-BB 10 ng/ml, Rac1-GTP detected relative to control (100), lower = more inhibition
[6] = Concentration 50 µm, 4 hours incubation, then PDGF-BB 10 ng/ml, Rac1-GTP detected relative to control (100), lower = more inhibition
[7] = metabolic activity, read-out: EC50

Structure (SMILES): CCN(CC)CCCC(C)Nc1nc(C)cc(Nc2ccc3nc(C)cc(N)c3c2)n1 (racemic) [NSC23766, reference compound]
PAMPA classification [1]: low (low (flux <20%))
PAMPA flux [%] ± SD [1]: 11±4%
Papp at 90 min, 50 µM [2]: 2.4 ± 4.2 ×10⁻⁶ cm/s
Caco2 Classification (Caco2): medium (compounds with Papp between 1 and 10 are moderately absorbed (20 - 70%))
Relative rate of apoptosis normalised to control [%] (HL-1 cells): 546.5%
toxic classification (HepG2 cells): not toxic (not toxic (EC50 > 500 µM))
MVC (HepG2 cells): 31.2 µM
Cytotoxicity-Classification (HepG2 cells): no (EC50 > 500 µM, (no))
EC50 (HepG2 cells): > 500 µM

Structure (SMILES): c1cc(NCc2ccc3[nH]ccc3c2)nc(NCc2ccc3[nH]ccc3c2)n1 [CWB020/01041, N2,N4-Bis-(1H-indol-5-ylmethyl)-pyrimidine-2,4-diamine]
PAMPA classification [1]: high (high (flux >70%))
PAMPA flux [%] ± SD [1]: 54±4%
remaining LC/MS peak area (relative to 0 min incubation samples, %) [3]: 33-41%
MVC [4]: 3.9 µM
Cytotoxicity-Classification [4]: ++ (10 µM < EC50 ≤ 100 µM, medium (++))
EC50 [4]: 17 µM
Papp at 90 min, 50 µM [2]: 65.9 ± 3.1 ×10⁻⁶ cm/s
Caco2 Classification (Caco2): high (compounds with a Papp >10 are predicted to be well absorbed (70 - 100%))
MVC (HL-1): 15.6 µM
Cytotoxicity-Classification (HL-1): ++ (10 µM < EC50 ≤ 100 µM, medium (++))
EC50 (HL-1): 39 µM
remaining activity at 50 µM (Rac1; [6]): 17.1%
inhibitory action on Rac1 activity (Rac1): significant end efficient inhibitory action
MVC (HepG2 cells): 7.8 µM
Cytotoxicity-Classification (HepG2 cells): ++ (10 µM < EC50 ≤ 100 µM, medium (++))
EC50 (HepG2 cells; [7]): 64 µM

Structure (SMILES): CCN(CC)CCCC(C)Nc1nc(C)cc(N2CCOCC2)n1 (stereo not drawn) [CWB007/02040, N1,N1-Diethyl-N4-(4-methyl-6-morpholin-4-yl-pyrimidin-2-yl)-pentane-1,4-diamine]
remaining activity at 50 µM (Rac1; [6]): 101%

Structure (SMILES): CCN(CC)CCCC(C)Nc1nc(C)cc(N2CCCCC2)n1 (stereo not drawn) [CWB008/02044, N1,N1-Diethyl-N4-(4-methyl-6-piperidin-1-yl-pyrimidin-2-yl)-pentane-1,4-diamine]
remaining activity at 50 µM (Rac1; [6]): 95.8%

Structure (SMILES): COC(=O)C(CC(C)C)Nc1cc(C)nc(Nc2ccc3ncccc3c2)n1 (stereo not drawn) [CWB018/01034, 4-Methyl-2-[6-methyl-2-(quinolin-6-ylamino)-pyrimidin-4-ylamino]-pentanoic acid methyl ester]
PAMPA classification [1]: high (high (flux >70%))
PAMPA flux [%] ± SD [1]: 85±11%
MVC [4]: 31.2 µM
Cytotoxicity-Classification [4]: ++ (10 µM < EC50 ≤ 100 µM, medium (++))
EC50 [4]: 85 µM
Papp at 90 min, 50 µM [2]: 20.5 ± 1.9 ×10⁻⁶ cm/s
Caco2 Classification (Caco2): high (compounds with a Papp >10 are predicted to be well absorbed (70 - 100%))
MVC (HL-1): 15.6 µM
Cytotoxicity-Classification (HL-1): ++ (10 µM < EC50 ≤ 100 µM, medium (++))
EC50 (HL-1): 68 µM
remaining activity at 50 µM (Rac1; [6]): 34.2%
inhibitory action on Rac1 activity (Rac1): significant end efficient inhibitory action
toxic classification (HepG2 cells): low toxic (low toxic (100 µM < EC50 ≤ 500 µM))
MVC (HepG2 cells): 62.5 µM
Cytotoxicity-Classification (HepG2 cells): + (100 µM < EC50 ≤ 500, low (+))
EC50 (HepG2 cells; [7]): 162 µM

Structure (SMILES): CCN(CC)CCCNc1nc(C)cc(Oc2ccc3nc(C)ccc3c2)n1 [CWB011/01023, N,N-Diethyl-N'-[4-methyl-6-(2-methyl-quinolin-6-yloxy)-pyrimidin-2-yl]-propane-1,3-diamine]
remaining activity at 50 µM (Rac1; [6]): 94.8%

Structure (SMILES): CCN(CC)CCCC(C)Nc1nccc(Oc2ccc3ccccc3c2)n1 (stereo not drawn) [CWB019/01037]
Remaining Rac1-GTP (% of control) (Rac1; [6]): 101.3%

Structure (SMILES): CCN(CC)CCCC(C)Nc1cc(C)nc(N2CCOCC2)n1 (stereo not drawn) [CWB016/02046, N1,N1-Diethyl-N4-(6-methyl-2-morpholin-4-yl-pyrimidin-4-yl)-pentane-1,4-diamine]
remaining activity at 50 µM (Rac1; [6]): 93.2%

Next, values leading:

remaining activity at 100 µM (Rac1; [5]): 123%
Structure (SMILES): CCN(CC)CCCC(C)Nc1nc(C)cc(NCCc2c[nH]c3ccc(O)cc23)n1 (stereo not drawn) [CWB025/02056, 3-{2-[2-(4-Diethylamino-1-methyl-butylamino)-6-methyl-pyrimidin-4-ylamino]-ethyl}-1H-indol-5-ol]

remaining activity at 100 µM (Rac1; [5]): 108%
Structure (SMILES): CCN(CC)CCCCNc1nc(C)cc(NCCc2c[nH]c3ccc(O)cc23)n1 [CWB026/02057, 3-{2-[2-(4-Diethylamino-butylamino)-6-methyl-pyrimidin-4-ylamino]-ethyl}-1H-indol-5-ol]

remaining activity at 50 µM (Rac1; [6]): 92.9%
Structure (SMILES): CCOC(=O)CNc1cc(C)nc(NC(C)CCCN(CC)CC)n1 (stereo not drawn) [CWB012/01025, [2-(4-Diethylamino-1-methyl-butylamino)-6-methyl-pyrimidin-4-ylamino]-acetic acid ethyl ester]

remaining activity at 50 µM (Rac1; [6]): 106%
Structure (SMILES): CCN(CC)CCCC(C)Nc1nc(C)cc(Nc2ccc3nc(C)cc(O)c3c2)n1 (stereo not drawn) [CWB005/02039, 6-[2-(4-Diethylamino-1-methyl-butylamino)-6-methyl-pyrimidin-4-ylamino]-2-methyl-quinolin-4-ol]

remaining activity at 100 µM (Rac1; [5]): 111%
Structure (SMILES): CCN(CC)CCCC(C)Nc1cc(C)nc(NCCc2c[nH]c3ccc(O)cc23)n1 (stereo not drawn) [CWB027/02058, 3-{2-[4-(4-diethylamino-1-methyl-butylamino)-6-methyl-pyrimidin-2-ylamino]-ethyl}-1H-indol-5-ol]

remaining activity at 50 µM (Rac1; [6]): 83.9%
Structure (SMILES): CCN(CC)CCCC(C)Nc1nc(C)cc(NCC(=O)O)n1 (stereo not drawn) [CWB015/01031, [2-(4-Diethylamino-1-methyl-butylamino)-6-methyl-pyrimidin-4-ylamino]-acetic acid]

remaining activity at 50 µM (Rac1; [6]): 109%
Structure (SMILES): CCN(CC)CCCC(C)Nc1nc(C)cc(NCCc2c[nH]c3ccccc23)n1 (stereo not drawn) [CWB002/02038, N2-(4-Diethylamino-1-methyl-butyl)-N4-[2-(1H-indol-3-yl)-ethyl)-6-methylpyrimidine-2,4-diamine]

remaining activity at 100 µM (Rac1; [5]): 98%
Structure (SMILES): CCN(CC)CCCC(C)Nc1nccc(Nc2ccc3cc[nH]c3c2)n1 (stereo not drawn) [CWB023/02053, N2-(4-Diethylamino-1-methyl-butyl)-N4-(1H-indol-6-yl)-pyrimidine-2,4-diamine]

remaining activity at 50 µM (Rac1; [6]): 102%
Structure (SMILES): CCN(CC)CCCC(C)Nc1nc(C)cc(Oc2ccc3nc(C)ccc3c2)n1 (stereo not drawn) [CWB001/01018, N1,N1-Diethyl-N4-[4-methyl-6-(2-methyl-quinolin-6-yloxy)-pyrimidin-2-yl]-pentane-1,4-diamine]

remaining activity at 50 µM (Rac1; [6]): 91.5%
Structure (SMILES): Cc1cc(Nc2ccc3nc(C)cc(O)c3c2)nc(NCCc2c[nH]c3ccccc23)n1 [CWB006/02035, 6-{2-[2-(1H-Indol-3-yl)-ethylamino]-6-methyl-pyrimidin-4-ylamino}-2-methyl-quinolin-4-ol]

remaining activity at 50 µM (Rac1; [6]): 93.8%
Structure (SMILES): CCN(CC)CCCC(C)Nc1nc(C)cc(Nc2ccc3ncccc3c2)n1 (stereo not drawn) [CWB003/01020, N2-(4-Diethylamino-1-methyl-butyl)-6-methyl-N4-quinolin-6-yl-pyrimidine-2,4-diamine]
